Data published in patent US6455510B1, “Chemical Compounds” (SmithKline Beecham Corporation, priority 1997, dated 2002).

Key:
[1] = biological target: T1, human adenosine A3 receptor (Homo sapiens, UniProt P0DMS8); test: Reporter gene assay (CRE/SPAP) in CHO cells, agonist activity, adenosine A3; assay type: cell-based; conditions: CHO cells stably transfected with human adenosine A3 receptor; inhibition of forskolin-stimulated SPAP production; potency relative to NECA=1
T1 construct: expressed in transfected cells; host or cells: Chinese hamster ovary (CHO) cells containing CRE/SPAP/HYG reporter elements
T1 sequence (P0DMS8 1-318): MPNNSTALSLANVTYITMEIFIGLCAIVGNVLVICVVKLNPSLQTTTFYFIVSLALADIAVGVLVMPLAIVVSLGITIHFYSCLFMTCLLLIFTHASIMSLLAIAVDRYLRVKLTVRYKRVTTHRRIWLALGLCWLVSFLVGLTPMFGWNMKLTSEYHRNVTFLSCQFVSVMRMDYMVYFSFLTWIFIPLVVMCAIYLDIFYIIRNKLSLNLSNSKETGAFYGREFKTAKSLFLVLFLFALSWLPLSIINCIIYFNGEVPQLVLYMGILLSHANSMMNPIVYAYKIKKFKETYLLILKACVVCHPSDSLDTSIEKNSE
Method: (§1) Reporter Gene Experiments
(§2) Agonist activity was measured in Chinese hamster ovary (CHO) cells containing the CRE/SPAP/HYG (CRE=cyclic AMP response element; HYG=hygromycin resistance; SPAP=secreted placental alkaline phosphatase) reporter gene elements, which upon stimulation of cAMP levels produced SPAP. A cell line was used, which was stably transfected with either the human adenosine Al receptor or the human adenosine A3 receptor in addition to the above elements. Cells were plated out in 96-well plates in culture medium and incubated at 37° C. for 1 hour. For measurement of potency, agonists were added to the appropriate wells at a concentration range of approximately 10^−10-10^−5M. 15 Min later, cAMP levels were stimulated by addition of a maximal concentration of forskolin. All cells were then incubated for a further 5 hours at 37° C., and cooled to room temperature, after which a substrate for the phosphatase (para-nitrophenol phosphate, pNPP), which is converted by SPAP to a coloured reagent) was then added and the 96-well plates were read in a plate reader. From these readings, the concentration-dependence of the inhibition by the agonist for forskolin-stimulated SPAP production can be calculated. One of the agonists tested on each 96-well plate was the standard non-selective agonist, N-ethylcarboxamidoadenosine (NECA), and the potency of all test agonists is expressed relative to that of the NECA standard.
(§3) (ECR=equipotent concentration ratio relative to NECA=1)

[2] = biological target: T2, human adenosine A1 receptor (Homo sapiens, UniProt P30542); test: Reporter gene assay (CRE/SPAP) in CHO cells, agonist activity, adenosine A1; assay type: cell-based; conditions: CHO cells stably transfected with human adenosine A1 receptor; inhibition of forskolin-stimulated SPAP production; potency relative to NECA=1
T2 construct: expressed in transfected cells; host or cells: Chinese hamster ovary (CHO) cells containing CRE/SPAP/HYG reporter elements
T2 sequence (P30542 1-326): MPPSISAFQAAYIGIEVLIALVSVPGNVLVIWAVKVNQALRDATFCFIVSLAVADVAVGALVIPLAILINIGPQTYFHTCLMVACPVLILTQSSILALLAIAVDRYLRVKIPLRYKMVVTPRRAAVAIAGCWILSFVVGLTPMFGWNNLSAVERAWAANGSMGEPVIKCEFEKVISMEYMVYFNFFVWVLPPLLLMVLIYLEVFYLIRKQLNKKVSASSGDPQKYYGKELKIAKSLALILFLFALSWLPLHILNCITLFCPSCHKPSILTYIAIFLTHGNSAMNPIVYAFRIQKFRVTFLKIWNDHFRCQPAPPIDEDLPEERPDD
Method: as §1
as §2, with “For measurement of potency, agonists were added to the appropriate wells at a concentration range of approximately 10^−10-10^−5M.” left out, “calculated.” for “calculated. One of the agonists tested on each 96-well plate was the standard non-selective agonist, N-ethylcarboxamidoadenosine (NECA), and the potency of all test agonists is expressed relative to that of the NECA standard.”
as §3

Row | SMILES | A3 Receptor, Reporter Gene Assay ECR (equipotent concentration ratio relative to NECA=1) [1] | A1 Receptor, Reporter Gene Assay ECR (equipotent concentration ratio relative to NECA=1) [2]
1 | CCNC(=O)N1CCC(Nc2nc(Cl)nc3c2ncn3[C@@H]2O[C@H](CF)[C@@H](O)[C@H]2O)CC1 [Example 29, 4-[2-Chloro-9-(5S-fluoromethyl-3R,4S-dihydroxy-tetrahydro-furan-2R-yl)-9H-purin-6-ylamino]-piperidine-1-carboxylic acid ethylamide] | >236.00 | 51.60
2 | O[C@@H]1[C@H](O)[C@@H](CF)O[C@H]1n1cnc2c(NC3CC4CCC3C4)ncnc21 (stereo partly drawn) [Example 11, N-(endo-Bicyclo[2.2.1]hept-2-yl)-5′-deoxy-5′-fluoro-adenosine] | >152.00 | –
3 | O[C@@H]1[C@H](O)[C@@H](CF)O[C@H]1n1cnc2c(NC3CC4CCC3C4)nc(Cl)nc21 (stereo partly drawn) [Example 25, N-(exo-Bicyclo[2.2.1]hept-2-yl)-2-chloro-5′-deoxy-5′-fluoro-adenosine] | >151.00 | –
4 | O[C@@H]1[C@H](O)[C@@H](CF)O[C@H]1n1cnc2c(NC3CC4CCC3C4)nc(Cl)nc21 (stereo partly drawn) [Example 8, N-(endo-Bicyclo[2.2.1]hept-2-yl)-2-chloro-5′-deoxy-5′-fluoro-adenosine] | >91.00 | –
5 | CC(C)(C)CNc1nc(Cl)nc2c1ncn2[C@@H]1O[C@H](CF)[C@@H](O)[C@H]1O [Example 24, 2-Chloro-5′-deoxy-N-(2,2-dimethyl-propyl)-5′-fluoro-adenosine] | >233.00 | 7.83
6 | O[C@@H]1[C@H](O)[C@@H](CF)O[C@H]1n1cnc2c(N[C@@H]3CCC[C@H]3F)nc(Cl)nc21 [Example 6, 2-Chloro-5-deoxy-5′-fluoro-N-(2R-fluoro-cyclopent-(R)-yl)-adenosine] | >156.00 | –
7 | CC(C)CNc1nc(Cl)nc2c1ncn2[C@@H]1O[C@H](CF)[C@@H](O)[C@H]1O [Example 22, 2-Chloro-5′-deoxy-5′-fluoro-N-isobutyl-adenosine] | >145.00 | 3.30
8 | OCC(O)CNc1nc(Cl)nc2c1ncn2[C@@H]1O[C@H](CF)[C@@H](O)[C@H]1O (stereo partly shown) [Example 16, 2-Chloro-5′-deoxy-N-(2,3-dihydroxy-propyl)-5′-fluoro-adenosine] | >240.00 | 7.29
9 | CCOC(=O)N1CCC(Nc2nc(Cl)nc3c2ncn3[C@@H]2O[C@H](CF)[C@@H](O)[C@H]2O)CC1 [Example 9, 4-[2-Chloro-9-(5S-fluoromethyl-3R,4S-dihydroxy-tetrahydro-furan-2R-yl)-9H-purin-6-ylamino]-piperidine-1-carboxylic acid ethyl ester] | >129.00 | 3.00
10 | O=S1(=O)CCC(Nc2ncnc3c2ncn3[C@@H]2O[C@H](CF)[C@@H](O)[C@H]2O)CC1 [Example 27] | >162.00 | –
11 | O[C@@H]1[C@H](O)[C@@H](CF)O[C@H]1n1cnc2c(N[C@H]3CCC[C@@H]3O)nc(Cl)nc21 [Example 7, 2-Chloro-5′-deoxy-5′-fluoro-N-(2S-hydroxy-cyclopent-(S)-yl)adenosine] | >91.00 | –
12 | O[C@@H]1[C@H](O)[C@@H](CF)O[C@H]1n1cnc2c(N[C@H]3CCC[C@@H]3O)ncnc21 [Example 13, 5′-Deoxy-5′-fluoro-N-(2S-hydroxy-cyclopent-(S)-yl)-adenosine] | >152.00 | –
13 | O[C@@H]1[C@H](O)[C@@H](C(F)(F)F)O[C@H]1n1cnc2c(NC3CCOCC3)nc(Cl)nc21 [Example 4, (2R,3 R,4S,5S)-2-[2-Chloro-6-(tetrahydro-pyran-4-ylamino)-purin-9-yl]-5-trifluoromethyl-tetrahydro-furan-3,4-diol] | – | 190.10

Now from value to molecule:

Row | A3 Receptor, Reporter Gene Assay ECR (equipotent concentration ratio relative to NECA=1) [1] | A1 Receptor, Reporter Gene Assay ECR (equipotent concentration ratio relative to NECA=1) [2] | SMILES
14 | >162.00 | 66.80 | CC(=O)N1CCC(Nc2nc(Cl)nc3c2ncn3[C@@H]2O[C@H](CF)[C@@H](O)[C@H]2O)CC1 [Example 10, 1-{4-[2-Chloro-9-(5S-fluoromethyl-3R,4S-dihydrox-tetrahydro-furan-2R-yl)-9H-purin-6-ylamino]-piperidin-1-yl}-ethanone]
15 | >139.00 | 2.41 | O[C@@H]1[C@H](O)[C@@H](CF)O[C@H]1n1cnc2c(NC3CCOCC3)nc(Cl)nc21 [Example 3, 2-Chloro-5′-deoxy-5′-fluoro-N-(tetrahydro-pyran-4-yl)-adenosine]
16 | >257.00 | 7.14 | CC(F)(F)[C@H]1O[C@@H](n2cnc3c(NC4CC5CCC4C5)ncnc32)[C@H](O)[C@@H]1O (stereo partly drawn) [Example 5, (2R,3R,4S,5S)-2-[6-(Bicyclo[2.2.1]hept-2-ylamino)-purin-9-yl]-5-(1,1-difluoro-ethyl)-tetrahydro-furan-3,4-diol]
17 | >435.00 | 9.16 | O=S1(=O)CCC(Nc2nc(Cl)nc3c2ncn3[C@@H]2O[C@H](CF)[C@@H](O)[C@H]2O)CC1 [Example 15, 2-Chloro-5′-deoxy-N-(1,1-dioxo-hexahydro-1δ6-thiopyran-4-yl)-5′-fluoro-adenosine]
18 | >226.00 | 11.8 | Cc1nc(NC2CCOCC2)c2ncn([C@@H]3O[C@H](CF)[C@@H](O)[C@H]3O)c2n1 [Example 2, 5′-Deoxy-5′-fluoro-2-methyl-N-(tetrahydro-pyran-4-yl)-adenosine]
19 | >353.00 | 22.30 | CC(F)(F)[C@H]1O[C@@H](n2cnc3c(NCC4CC4)ncnc32)[C@H](O)[C@@H]1O [Example 17, (2R,3R,4S,5S)-2-[6-(Cyclopropylmethyl-amino)-purin-9-yl]-(1,1-difluoro-ethyl)-tetrahydro-furan-3,4-diol]
20 | >170.00 | 2.05 | O[C@@H]1[C@H](O)[C@@H](CF)O[C@H]1n1cnc2c(Nc3ccc(Cl)cc3F)ncnc21 [Example 28, N-(4-Chloro-2-fluoro-phenyl)-5′-deoxy-5′-fluoro-adenosine]
21 | >353.00 | 1.64 | O[C@@H]1[C@H](O)[C@@H](CF)O[C@H]1n1cnc2c(NC3CCSCC3)ncnc21 [Example 21, 5′-Deoxy-5′-fluoro-N-(tetrahydro-thiopyran-4-yl)-adenosine]
